System: CDP138
Experiment: SILAC quantitative phosphoproteomics with PAS antibody immunoprecipitation in 3T3-L1 adipocytes
Type: cell-based, mouse
Settings: insulin-stimulated adipocytes
Method: Preparation of the Triple-Labeling SILAC Media. Arginine- and lysine-free DMEM was divided into three equal portions and 28 mg/liter of the three Arginine isotopes were added separately to make the Arg-0, Arg-6, and Arg-10 media, respectively. In addition, 48.7 mg/liter L-lysine, L-lysine-D4, and L-lysine13C6, 15N2 were supplemented separately to the three lots containing Arg-0, Arg-6, and Arg-10. Finally, glutamine and antibiotics were added to the media together with the full complement of amino acids (Arg-0/Lys-H4, Arg-6/Lys-D4, and Arg-10/Lys-8) and then sterile-filtered (Millipore). The sterile media were separated into two portions for dialyzed serum-containing and serum free media.
Mass Spectrometric Analysis. For SILAC quantitative proteomic study, the mixture of total lysates from the 3 different groups (as shown in FIG. 1A) was used for immunoprecipitation with PAS antibodies. Enriched proteins were resolved by SDS-PAGE. […] Only proteins that had at least 2 ion scores >20 were identified and quantified. MaxQuant was used to verify and quantify the resulting peptide pairs.
Identification of CDP138 as a novel Akt2 substrate using SILAC-based quantitative proteomics. […] The tryptic peptides were subsequently analyzed by tandem mass spectrometry (MS). […]

insulin
enrichment of CDP138 in PAS immunoprecipitate: 2.8 fold

Reference: patent US20120204273A1, “COMPOSITIONS RELATING TO A PHOSPHOPROTEIN AND METHODS OF USE” (SANFORD-BURNHAM MEDICAL RESEARCH INSTITUTE, priority 2010, published 2012)
